Assay results: the supplement of paper PMC6045584
± gives the standard deviation of the averaged measurements.

Legend:
[1] = compound: CNCc1ccc(-c2[nH]c3cc(F)cc4c3c2CCNC4=O)cc1; assay: surviving fraction relative to DMSO-only wells; higher = less growth inhibition; settings: exposure time: 5 days
Outline: (§1)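 Surviving fraction was calculated by normalising CellTiter-Glo luminescence to the median of DMSO-only wells. Tumour cell lines in log phase were seeded in 384-well plates at 250–500 cells per well, and 24 hours later were exposed continuously for five days to inhibitors at 0.5, 1, 5, 10, 50, 100, 500 and 1000 nM.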

DASATINIB = compound: Cc1nc(Nc2ncc(C(=O)Nc3c(C)cccc3Cl)s2)cc(N2CCN(CCO)CC2)n1 [DASATINIB]; assay: as above; settings: exposure time: 5 days
Outline: as §1

| Test System | surviving fraction ([1]; 0.5 nM) | surviving fraction ([1]; 1 nM) | surviving fraction ([1]; 5 nM) | surviving fraction ([1]; 10 nM) | surviving fraction ([1]; 50 nM) | surviving fraction ([1]; 100 nM) | surviving fraction ([1]; 500 nM) | surviving fraction ([1]; 1000 nM) | surviving fraction (DASATINIB; 0.5 nM) | surviving fraction (DASATINIB; 1 nM) | surviving fraction (DASATINIB; 5 nM) | surviving fraction (DASATINIB; 10 nM) | surviving fraction (DASATINIB; 50 nM) | surviving fraction (DASATINIB; 100 nM) | surviving fraction (DASATINIB; 500 nM) | surviving fraction (DASATINIB; 1000 nM) |
| --- | --- | --- | --- | --- | --- | --- | --- | --- | --- | --- | --- | --- | --- | --- | --- | --- |
| LM7 BONE | 0.912 ± 0.043 | 0.965 ± 0.015 | 0.986 ± 0.06 | 1.01 ± 0.016 | 0.752 ± 0.042 | 0.679 ± 0.1 | 0.497 ± 0.013 | 0.451 ± 0.0082 | 0.732 ± 0.032 | 0.694 ± 0.031 | 0.616 ± 0.044 | 0.576 ± 0.028 | 0.443 ± 0.036 | 0.338 ± 0.014 | 0.206 ± 0.031 | 0.211 ± 0.008 |
| SKBR3 BREAST | 0.907 ± 0.11 | 0.895 ± 0.12 | 0.9 ± 0.14 | 0.841 ± 0.11 | 0.703 ± 0.1 | 0.813 ± 0.052 | 0.733 ± 0.14 | 0.734 ± 0.026 | 0.718 ± 0.024 | 0.802 ± 0.1 | 0.722 ± 0.097 | 0.822 ± 0.063 | 1.01 ± 0.093 | 1.1 ± 0.086 | 1.13 ± 0.12 | 0.942 ± 0.022 |
| SCC36 HEADNECK | 1.02 ± 0.15 | 0.999 ± 0.1 | 1.11 ± 0.024 | 1.07 ± 0.1 | 0.763 ± 0.057 | 0.728 ± 0.018 | 0.629 ± 0.019 | 0.592 ± 0.069 | 0.788 ± 0.13 | 0.676 ± 0.033 | 0.705 ± 0.078 | 0.678 ± 0.1 | 0.385 ± 0.078 | 0.19 ± 0.032 | 0.12 ± 0.013 | 0.112 ± 0.011 |
| CAL120 BREAST | 1.04 ± 0.047 | 0.995 ± 0.075 | 0.984 ± 0.044 | 1.01 ± 0.043 | 0.945 ± 0.026 | 0.929 ± 0.056 | 0.926 ± 0.057 | 0.918 ± 0.043 | 0.877 ± 0.098 | 0.882 ± 0.025 | 0.861 ± 0.013 | 0.786 ± 0.062 | 0.497 ± 0.022 | 0.358 ± 0.021 | 0.217 ± 0.0088 | 0.192 ± 0.015 |
| KPD BONE | 0.975 ± 0.058 | 0.983 ± 0.022 | 1.13 ± 0.15 | 1.05 ± 0.028 | 0.956 ± 0.032 | 0.95 ± 0.022 | 0.876 ± 0.022 | 0.732 ± 0.046 | 0.909 ± 0.063 | 0.851 ± 0.053 | 0.781 ± 0.044 | 0.73 ± 0.0072 | 0.579 ± 0.039 | 0.481 ± 0.03 | 0.39 ± 0.016 | 0.336 ± 0.025 |
| H23 LUNG | 1.05 ± 0.061 | 1.07 ± 0.066 | 1.05 ± 0.025 | 1.1 ± 0.011 | 1.16 ± 0.076 | 1.11 ± 0.043 | 1.14 ± 0.035 | 1.12 ± 0.021 | 0.924 ± 0.025 | 0.902 ± 0.065 | 0.823 ± 0.064 | 0.783 ± 0.052 | 0.597 ± 0.051 | 0.511 ± 0.067 | 0.288 ± 0.0063 | 0.256 ± 0.013 |
| SCC90 HEADNECK | 0.96 ± 0.039 | 1 ± 0.071 | 0.998 ± 0.058 | 1.06 ± 0.1 | 0.934 ± 0.13 | 0.916 ± 0.062 | 0.9207 ± 0.0047 | 0.948 ± 0.11 | 0.823 ± 0.081 | 0.868 ± 0.037 | 0.803 ± 0.071 | 0.85 ± 0.18 | 0.527 ± 0.05 | 0.542 ± 0.072 | 0.433 ± 0.095 | 0.468 ± 0.053 |
| SUM44 BREAST | 0.927 ± 0.097 | 0.981 ± 0.098 | 1.01 ± 0.14 | 1.02 ± 0.11 | 0.841 ± 0.088 | 0.911 ± 0.027 | 0.892 ± 0.061 | 0.896 ± 0.042 | 0.88 ± 0.035 | 0.824 ± 0.085 | 0.941 ± 0.062 | 0.865 ± 0.13 | 1.14 ± 0.23 | 1.12 ± 0.15 | 1.09 ± 0.13 | 0.99 ± 0.055 |
| NOS1 BONE | 1.01 ± 0.042 | 1.08 ± 0.23 | 1.06 ± 0.13 | 0.919 ± 0.11 | 0.795 ± 0.1 | 0.798 ± 0.11 | 0.632 ± 0.049 | 0.602 ± 0.036 | 0.817 ± 0.083 | 0.726 ± 0.086 | 0.587 ± 0.026 | 0.464 ± 0.021 | 0.296 ± 0.004 | 0.256 ± 0.028 | 0.2 ± 0.026 | 0.193 ± 0.014 |
| NCIH441 LUNG | 1.06 ± 0.08 | 0.973 ± 0.12 | 1.09 ± 0.064 | 1.01 ± 0.06 | 0.992 ± 0.051 | 0.809 ± 0.022 | 0.996 ± 0.022 | 0.923 ± 0.1 | 0.994 ± 0.053 | 1.01 ± 0.052 | 0.878 ± 0.085 | 0.921 ± 0.046 | 0.846 ± 0.058 | 0.557 ± 0.056 | 0.462 ± 0.073 | 0.341 ± 0.046 |
| SUM149 BREAST | 0.887 ± 0.032 | 0.997 ± 0.037 | 0.778 ± 0.039 | 0.779 ± 0.1 | 0.673 ± 0.067 | 0.665 ± 0.088 | 0.497 ± 0.033 | 0.494 ± 0.014 | 0.774 ± 0.058 | 0.817 ± 0.082 | 0.607 ± 0.043 | 0.563 ± 0.036 | 0.292 ± 0.018 | 0.252 ± 0.011 | 0.177 ± 0.02 | 0.174 ± 0.018 |
| MFM223 BREAST | 1.04 ± 0.11 | 1.17 ± 0.072 | 1.07 ± 0.069 | 1.13 ± 0.12 | 0.775 ± 0.053 | 0.699 ± 0.011 | 0.755 ± 0.031 | 0.705 ± 0.079 | 0.778 ± 0.17 | 0.785 ± 0.2 | 0.767 ± 0.18 | 0.684 ± 0.05 | 0.834 ± 0.059 | 0.86 ± 0.1 | 0.788 ± 0.091 | 0.68 ± 0.06 |
| ASKA SYNOVIAL | 1.1 ± 0.024 | 1.04 ± 0.072 | 1.04 ± 0.07 | 0.987 ± 0.017 | 0.887 ± 0.053 | 0.72 ± 0.019 | 0.653 ± 0.1 | 0.585 ± 0.057 | 0.928 ± 0.024 | 0.904 ± 0.051 | 0.974 ± 0.061 | 0.936 ± 0.046 | 0.985 ± 0.085 | 0.94 ± 0.032 | 0.919 ± 0.019 | 0.905 ± 0.036 |
| HSSYII SYNOVIAL | 0.918 ± 0.023 | 0.915 ± 0.074 | 0.881 ± 0.028 | 0.861 ± 0.027 | 0.696 ± 0.055 | 0.653 ± 0.041 | 0.473 ± 0.05 | 0.343 ± 0.021 | 0.781 ± 0.031 | 0.791 ± 0.034 | 0.765 ± 0.029 | 0.743 ± 0.022 | 0.634 ± 0.0095 | 0.531 ± 0.047 | 0.489 ± 0.056 | 0.501 ± 0.037 |
| RDES SOFT TISSUE | 1.15 ± 0.059 | 1.09 ± 0.17 | 1.02 ± 0.049 | 1.06 ± 0.042 | 0.918 ± 0.19 | 1.06 ± 0.089 | 1.14 ± 0.036 | 1.38 ± 0.15 | 0.849 ± 0.23 | 0.762 ± 0.2 | 0.775 ± 0.067 | 0.767 ± 0.14 | 0.981 ± 0.09 | 0.934 ± 0.057 | 0.975 ± 0.059 | 0.9887 ± 0.0031 |
| JURKAT HAEMATOPOIETIC AND LYMPHOID TISSUE | 1.09 ± 0.018 | 1.1 ± 0.029 | 1.04 ± 0.019 | 1.02 ± 0.024 | 1.01 ± 0.049 | 1.01 ± 0.029 | 0.979 ± 0.021 | 0.916 ± 0.047 | 1.033 ± 0.0046 | 0.984 ± 0.034 | 0.927 ± 0.011 | 0.892 ± 0.011 | 0.886 ± 0.043 | 0.785 ± 0.024 | 0.614 ± 0.028 | 0.432 ± 0.016 |
| JIMT1 BREAST | 0.948 ± 0.055 | 0.945 ± 0.052 | 0.98 ± 0.067 | 0.9615 ± 0.0036 | 0.881 ± 0.045 | 0.885 ± 0.05 | 0.864 ± 0.031 | 0.856 ± 0.054 | 0.859 ± 0.034 | 0.844 ± 0.033 | 0.802 ± 0.034 | 0.68 ± 0.024 | 0.394 ± 0.041 | 0.182 ± 0.018 | 0.0683 ± 0.012 | 0.0518 ± 0.0019 |
| 22RV1 PROSTATE | 1.09 ± 0.051 | 1.13 ± 0.09 | 1.02 ± 0.075 | 0.968 ± 0.12 | 1.28 ± 0.32 | 1.04 ± 0.061 | 1.014 ± 0.0031 | 1.11 ± 0.24 | 1.15 ± 0.32 | 0.983 ± 0.09 | 1.1 ± 0.3 | 0.935 ± 0.097 | 1.01 ± 0.15 | 0.929 ± 0.056 | 1.04 ± 0.085 | 1.09 ± 0.16 |
| NY BONE | 0.989 ± 0.016 | 0.99 ± 0.044 | 1.05 ± 0.042 | 1.01 ± 0.055 | 0.981 ± 0.033 | 1.026 ± 0.0093 | 0.895 ± 0.03 | 0.827 ± 0.052 | 0.9257 ± 0.0085 | 0.881 ± 0.011 | 0.828 ± 0.015 | 0.753 ± 0.018 | 0.471 ± 0.018 | 0.366 ± 0.031 | 0.288 ± 0.012 | 0.263 ± 0.027 |
